B1: TFPI2 recombinant protein (tissue factor pathway inhibitor 2; BioVision, #7481-10) (ligand, UniProt P48307 23-235, looked up)
chain: DAAQEPTGNNAEICLLPLDYGPCRALLLRYYYDRYTQSCRQFLYGGCEGNANNFYTWEACDDACWRIEKVPKVCRLQVSVDDQCEGSTEKYFFNLSSMTCEKFFSGGCHRNRIENRFPDEATCMGFCAPKKIPSFCYSPKDEGLCSANVTRYYFNPRYRTCDAFTYTGCGGNDNNFVSREDCKRACAKALKKKKKMPKLRFASRIRKIRKKQF
notes: Bought recombinant protein added to microglia at 20 ng/ml; also called recombinant TFPI2; secreted TFPI2

Tests used:
[1] = test system: JURKAT T cells cocultured with PrhMG; assay: Human microglia-T cell co-culture, flow cytometry; format: cell-based; settings: TFPI2 recombinant protein 20 ng/ml; AS1517499 25 nM
Method: For membrane protein staining, the single-cell suspensions were washed with PBS and then incubated with fixable viability dye (Invitrogen, #5211229035) on ice for 10 min. Following washing with PBS, cells were incubated with the anti-CD16/CD32 cocktail (BioLegend, #103132) in 2% BSA PBS to block Fc receptors for 30 min on ice. Different antibody combinations, including Percp/Cy5.5 anti-mouse CD45 (BioLegend, #103132), AF488 anti-mouse CD3 (BioLegend, #100210), BV421 anti-mouse CX3CR1 (BD Bioscience, #567531), BUV395 anti-mouse CD4 (BD Bioscience, #740208), BV711 anti-mouse CD8 (BioLegend, #100747), PE/Cy7 anti-mouse/human CD11b (BioLegend, #101216), PE anti-mouse CD68 (BD Bioscience, #566386), PE anti-mouse PD1 (BioLegend, #135205), AF647 anti-mouse CD206 (BD Bioscience, #565250), AF647 anti-human CD206 (BioLegend, #321116), PE anti-human CD69 (BioLegend, #310906), PE/Cy7 anti-mouse CD69 (BioLegend, #104512), and BV650 anti-human HLA-DR (BioLegend, #307650) were added to cell suspensions for 30 min on ice. […] Samples were read in BD FACSymphony flow cytometer and analyzed in FlowJo v10.8.1. […] Then cell suspensions were rewashed in permeabilization buffer and read in BD FACSymphony flow cytometer.

STAT6 = assay: Immunoblot and flow cytometry for P-STAT6 in microglia; format: cell-based, human and mouse; settings: TFPI2 recombinant protein, indicated concentrations and time points
Method: The protein expression in cells was determined by western blotting analysis (Ref. 61; incorporated by reference in its entirety). Cells were homogenized in RIPA lysis buffer containing phosphatase/protease cocktail inhibitors (Cell Signaling Technology, #5870). The protein concentration was determined by BCA Protein Assay Kit (Thermo Fisher Scientific, #P123225). Protein solution was mixed with the Leammli sample buffer and heated at 95° C. before loading to SurePAGE gels (GenScript, #M00653). The gels were run at a constant voltage of 80 V and then transferred to 0.2 μm nitrocellulose membrane (Bio-Rad, #1620112) using the Trans-Blot Turbo system (Bio-Rad) with a preprogrammed standard protocol for 30 min. Nitrocellulose membrane was incubated with 5% dry milk to block any unspecific staining. […]

Molecule	suppression of JURKAT T cell viability and activation by TFPI2-polarized microglia [1]	phosphorylation of STAT6 in human and mouse microglia (STAT6)
NC(=O)c1cnc(NCCc2ccc(O)c(Cl)c2)nc1NCc1ccccc1 [AS1517499]	prevented	–
B1	–	increased

Source: patent US20250188457A1, “COMPOSITIONS AND METHODS FOR THE TREATMENT OF GLIOBLASTOMA BY INHIBITION OF THE TFPI2-CD51-STAT6 SIGNALING AXIS” (Northwestern University, priority 2023, published 2025)
